Patent US20210379062A1, “The use of a H3R inverse agonist for the treatment of excessive daytime sleepiness associated with parkinson's disease (PD)” (Novartis AG, priority 2018, published 2021)

Columns and labels:
[1] = biological target: T1, Human histamine H3 receptor (Homo sapiens, UniProt Q9Y5N1); assay: Radioligand binding assay with [3H]-N-α-methylhistamine
T1 construct: purchased PerkinElmer
Experimental: Human histamine H3 receptor membrane (PerkinElmer) were incubated with 1.0 nM [^3H]—N-α-methylhistamine (PerkinElmer) in the presence or absence of increasing concentrations of ligands for H3 receptor competition binding. The binding incubations were in a final volume of 0.1 ml buffer (50 mMTris pH 7.5, 5 mM MgCl2) at 28° C. for 120 minutes. Thioperamide (10 μM) was used to define non-specific binding.
All binding reactions were terminated by transferring 70 μl binding reaction from the reaction plate into filtration plates (Zeba 96-well Spin Desalting Plates, Thermo Scientific), followed by centrifugation at 1000 g for 2 min to collect the protein with bound radioligand. 200 μl of microscint-40 were added to determine the bound radiolabel by a Wallac Microbeta Trilux 2450 (Perkin Elmer). For all radioligand competition binding assays, IC50 values and Hill slopes were determined by GraphPad Prism: log(inhibitor) vs. response with variable slope. Ki was calculated using the equation in Biochem. Pharmacol. 1973. 22 (23), 3099-3108, from Cheng and Prusoff: Ki=IC50/{1+([radioligand]/Kd)}.

[2] = PK model (two-compartment, NONMEM) fitted to Phase I SAD/MAD concentrations; assay type: in vivo, human
Experimental: PK data (drug concentration over time) from Part 1 and Part 2 of the Phase I study were used in the development of the model: • 1) Part 1 is the Single Ascending Dose part; 8 different cohorts were used, with each cohort composed of 6 active subjects and 2 placebo subjects. The dose amounts used in the 8 cohorts were 0.3, 1, 3, 10, 30, 100, 300 and 800 mg. Dosing was performed at time equal to 0 hours. Additional data from the Part 3 of the Phase I study (Mechanistic biomarker study, 100 mg single dose) were lumped with this group. • 2) Part 2 is the Multiple Ascending Dose part; 4 different cohorts were used, with each cohort composed of 9 active subjects and 3 placebo subjects. The dose amounts used in the 4 cohorts were 10, 30, 50 and 100 mg. Dosing was performed once a day (in the morning) at times equal to 0, 2, 3, 4, 5, 6, 7, 8, 9, 10, 11, 12, 13, 14, 15 days.
The analysis was performed using NONMEM VII version 3 (Icon Development Solutions, Ellicott City, Md., USA), utilizing the MODESIM high performance computing environment. Pirana software was used for model editing and model submission to the cluster for running. All model building was performed using the first order conditional estimation with interaction (FOCEi) method.
A two-compartment model with combined zeroth-order and first-order absorption was used to fit the Compound (I) concentrations. The disposition kinetics were modeled using a parameterization involving apparent oral clearance (CL/F), apparent central volume (Vc/F), apparent inter-compartment clearance (Q/F), and apparent peripheral volume (Vp/F). The duration of zero-order absorption (D), a first order absorption rate constant (Ka) and an absorption delay parameter (Lag) were used to characterize the absorption process.
Between-subject variability in pharmacokinetic parameters Vc/F, CL/F, Vp/F and Ka was modeled using multiplicative exponential random effects of the form:
Residual variability was modeled using a proportional error model: […]

T1 sequence (Q9Y5N1 whole entry): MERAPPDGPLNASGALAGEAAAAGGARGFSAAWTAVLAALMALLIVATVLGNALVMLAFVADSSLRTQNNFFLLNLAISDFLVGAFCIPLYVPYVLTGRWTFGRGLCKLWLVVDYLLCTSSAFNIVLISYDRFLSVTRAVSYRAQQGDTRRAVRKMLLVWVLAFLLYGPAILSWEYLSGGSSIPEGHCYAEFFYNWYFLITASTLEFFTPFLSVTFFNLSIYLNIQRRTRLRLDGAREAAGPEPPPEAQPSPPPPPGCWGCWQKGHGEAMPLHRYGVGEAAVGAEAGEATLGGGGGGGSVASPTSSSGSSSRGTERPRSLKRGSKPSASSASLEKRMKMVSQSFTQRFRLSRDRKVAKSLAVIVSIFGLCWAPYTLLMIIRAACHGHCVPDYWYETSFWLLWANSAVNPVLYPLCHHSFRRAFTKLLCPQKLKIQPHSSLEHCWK

Structure (SMILES): Cn1nc(N2CCC(OC(=O)N3CCN(C4CCC4)CC3)CC2)ccc1=O [Compound (I), 1-(1-methyl-6-oxo-1,6-dihydropyridazin-3-yl)piperidin-4-yl 4-cyclobutylpiperazine-1-carboxylate]
- affinity fold higher compared to bavisant ([1]; human H3 receptors): 12 fold
- affinity fold higher compared to pitolisant ([1]; human H3 receptors): 18 fold
- Ki ([1]; human recombinant H3R, 1.0 nM [3H]-N-α-methylhistamine, Cheng-Prusoff): 8.5 nM
- CL/F (apparent oral clearance) ([2]; PK model estimate): 22.8 L/h
- D (duration of zero-order absorption) ([2]; PK model estimate): 0.108 h
- Ka (first-order absorption rate constant) ([2]; PK model estimate): 2.44 h⁻¹
- Lag (absorption delay) ([2]; PK model estimate): 0.214 h
- Q/F (apparent inter-compartment clearance) ([2]; PK model estimate): 1.26 L/h
- Residual Unexplained Variability ([2]; PK model estimate): 34.8%
- VC/F (apparent central volume) ([2]; PK model estimate): 121 L
- VP/F (apparent peripheral volume) ([2]; PK model estimate): 18.4 L
- Omega CL/F ([2]; between-subject variability): 40.37 % CV
- Omega Ka ([2]; between-subject variability): 145 % CV
- Omega Vc/F ([2]; between-subject variability): 23.71 % CV
- Omega Vp/F ([2]; between-subject variability): 46.48 % CV
